Laboratory results reported in patent US10597388B2, “Pyridazinone herbicides” (FMC CORPORATION, priority 2014, dated 2020).

Legend:
Assay in all cases: Test C greenhouse herbicide test, pre- and postemergence
Format in all cases: in vivo
[1] = system: barnyardgrass (Echinochloa crus-galli)
Method in brief: (§1)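 Visual 0–100 injury score (100 = complete control) taken against untreated controls after 13–15 d in greenhouse. Test chemicals, formulated in solvent plus surfactant, applied preemergence to seeds in loam–sand soil or postemergence to 1- to 4-leaf plants (2–18 cm).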

[2] = system: blackgrass (Alopecurus myosuroides)
Method in brief: as §1

corn (Zea mays) = system: corn (Zea mays)
Method in brief: as §1

[3] = system: foxtail, giant (giant foxtail, Setaria faberii)
Method in brief: as §1

[4] = system: galium (catchweed bedstraw, Galium aparine)
Method in brief: as §1

[5] = system: johnsongrass (Sorghum halepense)
Method in brief: as §1

[6] = system: lambsquarters (Chenopodium album)
Method in brief: as §1

[7] = system: morningglory (Ipomoea coccinea)
Method in brief: as §1

[8] = system: nutsedge, yellow (yellow nutsedge, Cyperus esculentus)
Method in brief: as §1

[9] = system: pigweed (Amaranthus retroflexus)
Method in brief: as §1

[10] = system: ragweed (common ragweed, Ambrosia elatior)
Method in brief: as §1

[11] = system: ryegrass, Italian (Italian ryegrass, Lolium multiflorum)
Method in brief: as §1

soybean (Glycine max) = system: soybean (Glycine max)
Method in brief: as §1

[12] = system: velvetleaf (Abutilon theophrasti)
Method in brief: as §1

[13] = system: waterhemp (common waterhemp, Amaranthus rudis)
Method in brief: as §1

[14] = system: wheat (winter wheat, Triticum aestivum)
Method in brief: as §1

[15] = Postemergence, 31 g ai/ha, scale 0 to 100 (0 no effect, 100 complete control)
[16] = Postemergence, 62 g ai/ha, 0 to 100 scale (0 no effect, 100 complete control)
[17] = Postemergence, 125 g ai/ha, scale 0 to 100, 0 is no effect, 100 is complete control
[18] = Postemergence, 250 g ai/ha, scale 0 to 100, 0 no effect, 100 complete control, 13 to 15 d
[19] = postemergence, 125 g ai/ha, scale 0 to 100, 0 no effect, 100 complete control
[20] = Preemergence, 31 g ai/ha, scale 0 to 100, 0 is no effect, 100 is complete control
[21] = Preemergence, 62 g ai/ha, scale 0 to 100, 0 is no effect, 100 is complete control
[22] = Preemergence, 125 g ai/ha, scale 0 to 100, 0 is no effect, 100 is complete control
[23] = Preemergence, 250 g ai/ha, scale 0 to 100 (0 no effect, 100 complete control)

## Cc1nn(C)c(=O)c(-c2cccc3ccc(C#N)cc23)c1O [Compound 127]
[1]; [15]
  Plant response rating, Barnyardgrass: 10
[1]; [16]
  Barnyardgrass plant response rating: 20
[1]; [17]
  Plant response rating, Barnyardgrass: 25
[1]; [18]
  Plant response rating, Barnyardgrass: 25
[2]; [15]
  Plant response rating, Blackgrass: 0
[2]; [16]
  Blackgrass plant response rating: 5
[2]; [18]
  Plant response rating, Blackgrass: 35
[2]; [19]
  Blackgrass plant response rating: 5
Corn (Zea mays); [15]
  Plant response rating, Corn: 0
Corn (Zea mays); [16]
  Corn plant response rating: 0
Corn (Zea mays); [18]
  Plant response rating, Corn: 10
Corn (Zea mays); [19]
  Corn plant response rating: 5
[3]; [15]
  Plant response rating, Foxtail, Giant: 5
[3]; [16]
  Foxtail, Giant plant response rating: 5
[3]; [18]
  Plant response rating, Foxtail, Giant: 40
[3]; [19]
  Foxtail, Giant plant response rating: 25
[4]; [15]
  Plant response rating, Galium: 75
[4]; [16]
  Galium plant response rating: 80
[4]; [18]
  Plant response rating, Galium: 90
[4]; [19]
  Galium plant response rating: 85
[5]; [15]
  Plant response rating, Johnsongrass: 5
[5]; [16]
  Johnsongrass plant response rating: 5
[5]; [18]
  Plant response rating, Johnsongrass: 15
[5]; [19]
  Johnsongrass plant response rating: 10
[6]; [15]
  Plant response rating, Lambsquarters: 70
[6]; [16]
  Lambsquarters plant response rating: 80
[6]; [18]
  Plant response rating, Lambsquarters: 98
[6]; [19]
  Lambsquarters plant response rating: 85
[7]; [15]
  Plant response rating, Morningglory: 65
[7]; [16]
  Morningglory plant response rating: 75
[7]; [18]
  Plant response rating, Morningglory: 98
[7]; [19]
  Morningglory plant response rating: 85
[8]; [15]
  Plant response rating, Nutsedge, Yellow: 10
[8]; [16]
  Nutsedge, Yellow plant response rating: 35
[8]; [18]
  Plant response rating, Nutsedge, Yellow: 70
[8]; [19]
  Nutsedge, Yellow plant response rating: 60
[9]; [15]
  Plant response rating, Pigweed: 70
[9]; [16]
  Pigweed plant response rating: 85
[9]; [18]
  Plant response rating, Pigweed: 95
[9]; [19]
  Pigweed plant response rating: 90
[10]; [15]
  Plant response rating, Ragweed: 10
[10]; [16]
  Ragweed plant response rating: 55
[10]; [18]
  Plant response rating, Ragweed: 90
[10]; [19]
  Ragweed plant response rating: 60
[11]; [15]
  Plant response rating, Ryegrass, Italian: 50
[11]; [16]
  Ryegrass, Italian plant response rating: 75
[11]; [18]
  Plant response rating, Ryegrass, Italian: 90
[11]; [19]
  Ryegrass, Italian plant response rating: 80
Soybean (Glycine max); [15]
  Plant response rating, Soybean: 0
Soybean (Glycine max); [16]
  Soybean plant response rating: 10
Soybean (Glycine max); [18]
  Plant response rating, Soybean: 35
Soybean (Glycine max); [19]
  Soybean plant response rating: 30
[12]; [15]
  Plant response rating, Velvetleaf: 20
[12]; [16]
  Velvetleaf plant response rating: 30
[12]; [18]
  Plant response rating, Velvetleaf: 55
[12]; [19]
  Velvetleaf plant response rating: 25
[13]; [15]
  Plant response rating, Waterhemp: 70
[13]; [16]
  Waterhemp plant response rating: 85
[13]; [18]
  Plant response rating, Waterhemp: 95
[13]; [19]
  Waterhemp plant response rating: 85
[14]; [15]
  Plant response rating, Wheat: 0
[14]; [16]
  Wheat plant response rating: 5
[14]; [18]
  Plant response rating, Wheat: 30
[14]; [19]
  Wheat plant response rating: 5

## CC(=O)Oc1c(Br)nn(C)c(=O)c1-c1c(C)ccc2ccccc12 [Compound 129]
[1]; [15]
  Plant response rating, Barnyardgrass: 50
[1]; [16]
  Barnyardgrass plant response rating: 65
[1]; [17]
  Plant response rating, Barnyardgrass: 70
[1]; [18]
  Plant response rating, Barnyardgrass: 85
[1]; [20]
  Plant response rating, Barnyardgrass: 15
[1]; [21]
  Plant response rating, Barnyardgrass: 70
[1]; [22]
  Plant response rating, Barnyardgrass: 100
[1]; [23]
  Barnyardgrass plant response rating: 90
[2]; [15]
  Plant response rating, Blackgrass: 35
[2]; [16]
  Blackgrass plant response rating: 40
[2]; [18]
  Plant response rating, Blackgrass: 80
[2]; [20]
  Plant response rating, Blackgrass: 5
[2]; [21]
  Plant response rating, Blackgrass: 30
[2]; [22]
  Plant response rating, Blackgrass: 70
[2]; [23]
  Blackgrass plant response rating: 80
[2]; [19]
  Blackgrass plant response rating: 60
Corn (Zea mays); [15]
  Plant response rating, Corn: 0
Corn (Zea mays); [16]
  Corn plant response rating: 20
Corn (Zea mays); [18]
  Plant response rating, Corn: 30
Corn (Zea mays); [20]
  Plant response rating, Corn: 0
Corn (Zea mays); [21]
  Plant response rating, Corn: 5
Corn (Zea mays); [22]
  Plant response rating, Corn: 15
Corn (Zea mays); [23]
  Corn plant response rating: 40
Corn (Zea mays); [19]
  Corn plant response rating: 30
[3]; [15]
  Plant response rating, Foxtail, Giant: 60
[3]; [16]
  Foxtail, Giant plant response rating: 75
[3]; [18]
  Plant response rating, Foxtail, Giant: 95
[3]; [20]
  Plant response rating, Foxtail, Giant: 85
[3]; [21]
  Plant response rating, Foxtail, Giant: 90
[3]; [22]
  Plant response rating, Foxtail, Giant: 95
[3]; [23]
  Foxtail, Giant plant response rating: 98
[3]; [19]
  Foxtail, Giant plant response rating: 85
[4]; [15]
  Plant response rating, Galium: 95
[4]; [16]
  Galium plant response rating: 100
[4]; [18]
  Plant response rating, Galium: 100
[4]; [20]
  Plant response rating, Galium: 95
[4]; [21]
  Plant response rating, Galium: 98
[4]; [22]
  Plant response rating, Galium: 100
[4]; [23]
  Galium plant response rating: 98
[4]; [19]
  Galium plant response rating: 100
[5]; [15]
  Plant response rating, Johnsongrass: 10
[5]; [16]
  Johnsongrass plant response rating: 15
[5]; [18]
  Plant response rating, Johnsongrass: 25
[5]; [20]
  Plant response rating, Johnsongrass: 5
[5]; [21]
  Plant response rating, Johnsongrass: 5
[5]; [22]
  Plant response rating, Johnsongrass: 10
[5]; [23]
  Johnsongrass plant response rating: 25
[5]; [19]
  Johnsongrass plant response rating: 15
[6]; [15]
  Plant response rating, Lambsquarters: 95
[6]; [16]
  Lambsquarters plant response rating: 95
[6]; [18]
  Plant response rating, Lambsquarters: 98
[6]; [20]
  Plant response rating, Lambsquarters: 85
[6]; [21]
  Plant response rating, Lambsquarters: 80
[6]; [22]
  Plant response rating, Lambsquarters: 85
[6]; [23]
  Lambsquarters plant response rating: 90
[6]; [19]
  Lambsquarters plant response rating: 95
[7]; [15]
  Plant response rating, Morningglory: 98
[7]; [16]
  Morningglory plant response rating: 100
[7]; [18]
  Plant response rating, Morningglory: 100
[7]; [20]
  Plant response rating, Morningglory: 85
[7]; [21]
  Plant response rating, Morningglory: 90
[7]; [22]
  Plant response rating, Morningglory: 90
[7]; [23]
  Morningglory plant response rating: 98
[7]; [19]
  Morningglory plant response rating: 100
[8]; [15]
  Plant response rating, Nutsedge, Yellow: 60
[8]; [16]
  Nutsedge, Yellow plant response rating: 75
[8]; [18]
  Plant response rating, Nutsedge, Yellow: 95
[8]; [20]
  Plant response rating, Nutsedge, Yellow: 55
[8]; [21]
  Plant response rating, Nutsedge, Yellow: 85
[8]; [22]
  Plant response rating, Nutsedge, Yellow: 90
[8]; [23]
  Nutsedge, Yellow plant response rating: 95
[8]; [19]
  Nutsedge, Yellow plant response rating: 85
[9]; [15]
  Plant response rating, Pigweed: 95
[9]; [16]
  Pigweed plant response rating: 95
[9]; [18]
  Plant response rating, Pigweed: 98
[9]; [20]
  Plant response rating, Pigweed: 100
[9]; [21]
  Plant response rating, Pigweed: 98
[9]; [22]
  Plant response rating, Pigweed: 98
[9]; [23]
  Pigweed plant response rating: 100
[9]; [19]
  Pigweed plant response rating: 98
[10]; [15]
  Plant response rating, Ragweed: 90
[10]; [16]
  Ragweed plant response rating: 90
[10]; [18]
  Plant response rating, Ragweed: 95
[10]; [20]
  Plant response rating, Ragweed: 70
[10]; [21]
  Plant response rating, Ragweed: 85
[10]; [22]
  Plant response rating, Ragweed: 95
[10]; [23]
  Ragweed plant response rating: 95
[10]; [19]
  Ragweed plant response rating: 95
[11]; [15]
  Plant response rating, Ryegrass, Italian: 70
[11]; [16]
  Ryegrass, Italian plant response rating: 90
[11]; [18]
  Plant response rating, Ryegrass, Italian: 95
[11]; [20]
  Plant response rating, Ryegrass, Italian: 90
[11]; [21]
  Plant response rating, Ryegrass, Italian: 90
[11]; [22]
  Plant response rating, Ryegrass, Italian: 95
[11]; [23]
  Ryegrass, Italian plant response rating: 95
[11]; [19]
  Ryegrass, Italian plant response rating: 95
Soybean (Glycine max); [15]
  Plant response rating, Soybean: 0
Soybean (Glycine max); [16]
  Soybean plant response rating: 10
Soybean (Glycine max); [18]
  Plant response rating, Soybean: 25
Soybean (Glycine max); [20]
  Plant response rating, Soybean: 0
Soybean (Glycine max); [21]
  Plant response rating, Soybean: 0
Soybean (Glycine max); [22]
  Plant response rating, Soybean: 5
Soybean (Glycine max); [23]
  Soybean plant response rating: 20
Soybean (Glycine max); [19]
  Soybean plant response rating: 20
[12]; [15]
  Plant response rating, Velvetleaf: 85
[12]; [16]
  Velvetleaf plant response rating: 95
[12]; [18]
  Plant response rating, Velvetleaf: 100
[12]; [20]
  Plant response rating, Velvetleaf: 70
[12]; [21]
  Plant response rating, Velvetleaf: 85
[12]; [22]
  Plant response rating, Velvetleaf: 98
[12]; [23]
  Velvetleaf plant response rating: 98
[12]; [19]
  Velvetleaf plant response rating: 95
[13]; [15]
  Plant response rating, Waterhemp: 75
[13]; [16]
  Waterhemp plant response rating: 70
[13]; [18]
  Plant response rating, Waterhemp: 98
[13]; [20]
  Plant response rating, Waterhemp: 90
[13]; [21]
  Plant response rating, Waterhemp: 95
[13]; [22]
  Plant response rating, Waterhemp: 100
[13]; [23]
  Waterhemp plant response rating: 100
[13]; [19]
  Waterhemp plant response rating: 85
[14]; [15]
  Plant response rating, Wheat: 10
[14]; [16]
  Wheat plant response rating: 35
[14]; [18]
  Plant response rating, Wheat: 55
[14]; [20]
  Plant response rating, Wheat: 35
[14]; [21]
  Plant response rating, Wheat: 50
[14]; [22]
  Plant response rating, Wheat: 55
[14]; [23]
  Wheat plant response rating: 85
[14]; [19]
  Wheat plant response rating: 40
